Data set [1] concerns B16F10 mouse melanoma cells. Kind of data set: LED/PDT irradiation experiment with MTT cell proliferation readout. Format: cell-based. The following applies: no irradiation, RuC2 at 8×10^−5 M. The procedure:
LED-irradiation experiments employing RL5-B12120 Superbright LED's, (Qmax=470 nm, light output 0.0114±0.0008 W) and a light-attenuation system consisting of a series of parallel optical filters was performed. After trypsinization, B16F10 mouse melanoma cells were counted using a hemacytometer and the trypan blue exclusion method, and plated in tissue culture plates (TPP brand, Midwest Scientific). Four hours post-plating, RuC2, TCPP, or a 1:1 mixture of RuC2 and TCPP was added to the plates, with the 1:1 mixture containing each agent at half their respective concentrations to permit comparisons at the same molar concentrations of PDT-agents. The cells were then stored in the dark for 24 hours. Next, the cells were irradiated with high or low intensity of LED light for 45 min. Twenty-four hours post-radiation, MTT cell proliferation reagent (thiazolyl blue) was added to the cells, which were then incubated four hours. Next, SDS-solubilization buffer was added and the cells were incubated for 12 hours. The plates were then read using a plate reader (Spectramax 190) at 550 nm and 690 nm (background establishment).

For data set [2] the following is noted: cited from earlier work.
Data set [3] has as its system 4T1luc2 breast cancer tumors. Kind of data set: Deep-tissue PDT treatment of metastatic 4T1 breast cancer in mice. In kind it is in vivo, BALB C mice. Particulars: DFO 300 mg/kg i.p.; p-value: 0.65. As to the method: In this Example, PDT using in-situ generation of light was used to treat metastatic breast cancer in BALB C mice. ALA was used as the only photosensitizer/prodrug, and DFO was used as the iron chelator. The mice were divided into three treatment groups as follows. On Day 0, the mice were inoculated with 4T1luc2 breast cancer cells (100,000/mouse, i.v.). On Day 3, 25 million NSCs were plated as described above for transfection. On Day 4, the cells were transfected with Glue. On Day 5, IVIS imaging with D-luciferin was carried out in the morning to determine tumor size and stratification of the mice. In the afternoon, the mice in Groups 2 and 3 were injected with the transfected cells (1 million/mouse). On Day 7, DFO was administered i.p. (300 mg/kg), as described above. On Day 8, the photosensitizing agent, ALA, was injected i.p. (100 mg/kg). Four hours later, cyclodextrin-complexed coelenterazine was administered i.v. (100 μg) into the tail vein of each mouse. The ALA/coelenterazine procedure was repeated on Day 9, and then on Day 10. The control groups were injected with PBS.

The nature of another data set: Redox potentials of RuC2. Format: physicochemical.

Regarding `O=C(O)c1ccc(-c2c3nc(c(-c4ccc(C(=O)O)cc4)c4ccc([nH]4)c(-c4ccc(C(=O)O)cc4)c4nc(c(-c5ccc(C(=O)O)cc5)c5ccc2[nH]5)C=C4)C=C3)cc1` [TCPP, tetrakis-4-carboxyphenyl-porphyrin], the “growth inhibition in the absence of irradiation” value in data set [1] was “zero”.
Regarding `O=c1c(Cc2ccc(O)cc2)nc2c(Cc3ccccc3)[nH]c(-c3ccc(O)cc3)cn1-2` [coelenterazine, 2-(4-hydroxybenzyl)-6-(4-hydroxyphenyl)-8-(phenylmethyl)imidazo[1,2-a]pyrazin-3(7H)-one], in data set [2] (commercially available material), the long-term stability result is reported as “not long-term stable”. In addition, the water solubility entry in data set [2] (native form) is given as “low”.
Regarding `CC(=O)N(O)CCCCCNC(=O)CCC(=O)N(O)CCCCCNC(=O)CCC(=O)N(O)CCCCCN` [DFO, deferoxamine], the “effect of the iron chelator on tumor growth” value in data set [3] was “mild effect in suppressing tumor growth”.
In the case of `O=C(O)CC[n+]1ccc(-c2ccnc(-c3cc(-c4cc[n+](CCC(=O)O)cc4)ccn3)c2)cc1.O=C(O)CC[n+]1ccc(-c2ccnc(-c3cc(-c4cc[n+](CCC(=O)O)cc4)ccn3)c2)cc1.O=C(O)CC[n+]1ccc(-c2ccnc(-c3cc(-c4cc[n+](CCC(=O)O)cc4)ccn3)c2)cc1.[Cl-].[Cl-].[Cl-].[Cl-].[Cl-].[Cl-].[Cl-].[Cl-].[Ru+2]` [RuC2, Tris(N,N′″-bis(2-carboxyethyl)-4,4′:2,2″:4″,4′″-Quaterpyridine-N′N″-dium-N′,N′″) ruthenium(II)octachloride], in “Redox potentials of RuC2”, the “E0 Ru^2+/1+” value is −0.477 V and the “photochemical reduction potential E0*Ru^2+/1+” value is recorded as 1.670 V. The “oxidation potential E0 Ru^3+/2” value in the data set “Redox potentials of RuC2” (vs. SHE, pH=7.0) worked out at 1.537 V. Moreover, in data set [1], the “growth inhibition in the absence of irradiation” value was “approx. 20%”.
